# Source: patent publication US12077503B2, “Substituted cyclic amides and their use as herbicides” (FMC CORPORATION, priority 2015, dated 2024)
# Assays:
# Format in all cases: in vivo
# [1] = test system: corn (Zea mays); test: Test G Pre-Emergence Protocol; details: Zea mays, pre-emergence, 312 h, evaluated after 13 days; for plant injury at 15.625 g/ha: 15.625 g ai/ha; for plant injury at 15.625 g/ha / plant injury at 250 g/ha: read-out: Corn damage rating (100=total damage to plant; 0=no damage to plant); for plant injury at 62.5 g/ha: 62.5 g ai/ha, 100=total damage to plant, 0=no damage to plant, read-out: Corn damage rating; for plant injury at 250 g/ha: 250 g ai/ha
# Method in brief: (§1)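 One day after sowing, pots are treated with a spray of test compound formulated in acetone/water 50:50 plus 0.5% Tween 20, giving 15.625, 62.5 or 250 g/ha. Evaluation on a 0–100 damage scale follows 13 days of glasshouse growth.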
# [2] = test system: ivy-leaved morning glory (Ipomoea hederacea); test: Test G Pre-Emergence Protocol; details: Ipomoea, pre-emergence, 312 h, evaluated after 13 days; for pest or weed control at 15.625 g/ha: 15.625 g ai/ha; for pest or weed control at 15.625 g/ha / pest or weed control at 250 g/ha: read-out: Morningglory, Ivy-leaved damage rating (100=total damage to plant; 0=no damage to plant); for pest or weed control at 62.5 g/ha: 62.5 g ai/ha, 100=total damage to plant, 0=no damage to plant, read-out: Morningglory, Ivy-leaved damage rating; for pest or weed control at 250 g/ha: 250 g ai/ha
# Method in brief: as §1
# [3] = test system: barnyardgrass (Echinochloa crus-galli); test: Test G Pre-Emergence Protocol; details: Echinochloa crus-galli, pre-emergence, 312 h, evaluated after 13 days; for pest or weed control at 15.625 g/ha: 15.625 g ai/ha; for pest or weed control at 15.625 g/ha / pest or weed control at 250 g/ha: read-out: Barnyardgrass damage rating (100=total damage to plant; 0=no damage to plant); for pest or weed control at 62.5 g/ha: 62.5 g ai/ha, 100=total damage to plant, 0=no damage to plant, read-out: Barnyardgrass damage rating; for pest or weed control at 250 g/ha: 250 g ai/ha
# Method in brief: as §1
# [4] = test system: redroot pigweed (Amaranthus retroflexus); test: Test G Pre-Emergence Protocol; details: Amaranthus retroflexus, pre-emergence, 312 h, evaluated after 13 days; for pest or weed control at 15.625 g/ha: 15.625 g ai/ha; for pest or weed control at 15.625 g/ha / pest or weed control at 250 g/ha: read-out: Pigweed, Redroot damage rating (100=total damage to plant; 0=no damage to plant); for pest or weed control at 62.5 g/ha: 62.5 g ai/ha, 100=total damage to plant, 0=no damage to plant, read-out: Pigweed, Redroot damage rating; for pest or weed control at 250 g/ha: 250 g ai/ha
# Method in brief: as §1
# [5] = test system: velvetleaf (Abutilon theophrasti); test: Test G Pre-Emergence Protocol; details: Abutilon theophrasti, pre-emergence, 312 h, evaluated after 13 days; for pest or weed control at 15.625 g/ha: 15.625 g ai/ha; for pest or weed control at 15.625 g/ha / pest or weed control at 250 g/ha: read-out: Velvetleaf damage rating (100=total damage to plant; 0=no damage to plant); for pest or weed control at 62.5 g/ha: 62.5 g ai/ha, 100=total damage to plant, 0=no damage to plant, read-out: Velvetleaf damage rating; for pest or weed control at 250 g/ha: 250 g ai/ha
# Method in brief: as §1
# [6] = test system: giant foxtail (Setaria faberi); test: Test G Pre-Emergence Protocol; details: Setaria faberi, pre-emergence, 312 h, evaluated after 13 days; for pest or weed control at 15.625 g/ha: 15.625 g ai/ha; for pest or weed control at 15.625 g/ha / pest or weed control at 250 g/ha: read-out: Foxtail, Giant damage rating (100=total damage to plant; 0=no damage to plant); for pest or weed control at 62.5 g/ha: 62.5 g ai/ha, 100=total damage to plant, 0=no damage to plant, read-out: Foxtail, Giant damage rating; for pest or weed control at 250 g/ha: 250 g ai/ha
# Method in brief: as §1
# [7] = test system: corn (Zea mays); test: Test G Post-Emergence Protocol; details: Zea mays, post-emergence, 312 h, read-out: Corn damage rating; for plant injury at 15.625 g/ha: 15.625 g ai/ha, evaluated after 13 days (100=total damage to plant; 0=no damage to plant); for plant injury at 62.5 g/ha: 62.5 g ai/ha; for plant injury at 62.5 g/ha / plant injury at 250 g/ha: evaluated after 13 days, 100=total damage to plant, 0=no damage to plant; for plant injury at 250 g/ha: 250 g ai/ha
# Method in brief: (§2)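 Seedlings grown 8 days in soil in a glasshouse (24/16 °C day/night, 14 h light, 65% humidity) were sprayed post-emergence with compound in acetone/water 50:50 plus 0.5% Tween 20 at 15.625, 62.5 or 250 g/ha. Damage was scored after 13 days on a 0–100 scale (100 = total damage).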
# [8] = test system: ivy-leaved morning glory (Ipomoea hederacea); test: Test G Post-Emergence Protocol; details: Ipomoea, post-emergence, 312 h, read-out: Morningglory, Ivy-leaved damage rating; for pest or weed control at 15.625 g/ha: 15.625 g ai/ha, evaluated after 13 days (100=total damage to plant; 0=no damage to plant); for pest or weed control at 62.5 g/ha: 62.5 g ai/ha; for pest or weed control at 62.5 g/ha / pest or weed control at 250 g/ha: evaluated after 13 days, 100=total damage to plant, 0=no damage to plant; for pest or weed control at 250 g/ha: 250 g ai/ha
# Method in brief: as §2
# [9] = test system: barnyardgrass (Echinochloa crus-galli); test: Test G Post-Emergence Protocol; details: Echinochloa crus-galli, post-emergence, 312 h, read-out: Barnyardgrass damage rating; for pest or weed control at 15.625 g/ha: 15.625 g ai/ha, evaluated after 13 days (100=total damage to plant; 0=no damage to plant); for pest or weed control at 62.5 g/ha: 62.5 g ai/ha; for pest or weed control at 62.5 g/ha / pest or weed control at 250 g/ha: evaluated after 13 days, 100=total damage to plant, 0=no damage to plant; for pest or weed control at 250 g/ha: 250 g ai/ha
# Method in brief: as §2
# [10] = test system: redroot pigweed (Amaranthus retroflexus); test: Test G Post-Emergence Protocol; details: Amaranthus retroflexus, post-emergence, 312 h, read-out: Pigweed, Redroot damage rating; for pest or weed control at 15.625 g/ha: 15.625 g ai/ha, evaluated after 13 days (100=total damage to plant; 0=no damage to plant); for pest or weed control at 62.5 g/ha: 62.5 g ai/ha; for pest or weed control at 62.5 g/ha / pest or weed control at 250 g/ha: evaluated after 13 days, 100=total damage to plant, 0=no damage to plant; for pest or weed control at 250 g/ha: 250 g ai/ha
# Method in brief: as §2
# [11] = test system: velvetleaf (Abutilon theophrasti); test: Test G Post-Emergence Protocol; details: Abutilon theophrasti, post-emergence, 312 h, read-out: Velvetleaf damage rating; for pest or weed control at 15.625 g/ha: 15.625 g ai/ha, evaluated after 13 days (100=total damage to plant; 0=no damage to plant); for pest or weed control at 62.5 g/ha: 62.5 g ai/ha; for pest or weed control at 62.5 g/ha / pest or weed control at 250 g/ha: evaluated after 13 days, 100=total damage to plant, 0=no damage to plant; for pest or weed control at 250 g/ha: 250 g ai/ha
# Method in brief: as §2
# [12] = test system: giant foxtail (Setaria faberi); test: Test G Post-Emergence Protocol; details: Setaria faberi, post-emergence, 312 h, read-out: Foxtail, Giant damage rating; for pest or weed control at 15.625 g/ha: 15.625 g ai/ha, evaluated after 13 days (100=total damage to plant; 0=no damage to plant); for pest or weed control at 62.5 g/ha: 62.5 g ai/ha; for pest or weed control at 62.5 g/ha / pest or weed control at 250 g/ha: evaluated after 13 days, 100=total damage to plant, 0=no damage to plant; for pest or weed control at 250 g/ha: 250 g ai/ha
# Method in brief: as §2
SMILES,plant injury at 15.625 g/ha [1],plant injury at 62.5 g/ha [1],plant injury at 250 g/ha [1],pest or weed control at 15.625 g/ha [2],pest or weed control at 62.5 g/ha [2],pest or weed control at 250 g/ha [2],pest or weed control at 15.625 g/ha [3],pest or weed control at 62.5 g/ha [3],pest or weed control at 250 g/ha [3],pest or weed control at 15.625 g/ha [4],pest or weed control at 62.5 g/ha [4],pest or weed control at 250 g/ha [4],pest or weed control at 15.625 g/ha [5],pest or weed control at 62.5 g/ha [5],pest or weed control at 250 g/ha [5],pest or weed control at 15.625 g/ha [6],pest or weed control at 62.5 g/ha [6],pest or weed control at 250 g/ha [6],plant injury at 15.625 g/ha [7],plant injury at 62.5 g/ha [7],other results
Cc1cc([C@H]2CN(C)C(=O)[C@@H]2C(=O)Nc2ccccc2S(C)(=O)=O)cc(C(F)(F)F)c1 (racemic) [Compound 1795],0%,40%,80%,0%,10%,60%,30%,70%,80%,0%,20%,30%,0%,0%,10%,60%,80%,90%,0%,40%,plant injury at 250 g/ha [7]: 70%; pest or weed control at 15.625 g/ha [8]: 10%; pest or weed control at 62.5 g/ha [8]: 20%; pest or weed control at 250 g/ha [8]: 70%; pest or weed control at 15.625 g/ha [9]: 20%; pest or weed control at 62.5 g/ha [9]: 70%; pest or weed control at 250 g/ha [9]: 70%; pest or weed control at 15.625 g/ha [10]: 0%; pest or weed control at 62.5 g/ha [10]: 20%; pest or weed control at 250 g/ha [10]: 30%; pest or weed control at 15.625 g/ha [11]: 0%; pest or weed control at 62.5 g/ha [11]: 0%; pest or weed control at 250 g/ha [11]: 20%; pest or weed control at 15.625 g/ha [12]: 60%; pest or weed control at 62.5 g/ha [12]: 80%; pest or weed control at 250 g/ha [12]: 80%
CN1C[C@H](c2cccc(C(F)(F)F)c2)[C@@H](C(=O)Nc2c(O)cccc2F)C1=O (racemic) [Compound 1808],0%,0%,0%,0%,0%,10%,0%,0%,40%,0%,0%,20%,0%,0%,10%,0%,20%,70%,0%,0%,plant injury at 250 g/ha [7]: 0%; pest or weed control at 15.625 g/ha [8]: 0%; pest or weed control at 62.5 g/ha [8]: 0%; pest or weed control at 250 g/ha [8]: 0%; pest or weed control at 15.625 g/ha [9]: 0%; pest or weed control at 62.5 g/ha [9]: 20%; pest or weed control at 250 g/ha [9]: 60%; pest or weed control at 15.625 g/ha [10]: 0%; pest or weed control at 62.5 g/ha [10]: 0%; pest or weed control at 250 g/ha [10]: 0%; pest or weed control at 15.625 g/ha [11]: 0%; pest or weed control at 62.5 g/ha [11]: 0%; pest or weed control at 250 g/ha [11]: 0%; pest or weed control at 15.625 g/ha [12]: 0%; pest or weed control at 62.5 g/ha [12]: 30%; pest or weed control at 250 g/ha [12]: 60%
CN1C[C@H](c2cccc(C(F)(F)F)c2)[C@@H](C(=O)Nc2cc(O)ccc2F)C1=O (racemic) [Compound 1807],0%,0%,0%,0%,0%,0%,0%,0%,0%,0%,0%,0%,0%,0%,0%,0%,0%,0%,0%,0%,plant injury at 250 g/ha [7]: 0%; pest or weed control at 15.625 g/ha [8]: 0%; pest or weed control at 62.5 g/ha [8]: 0%; pest or weed control at 250 g/ha [8]: 0%; pest or weed control at 15.625 g/ha [9]: 0%; pest or weed control at 62.5 g/ha [9]: 0%; pest or weed control at 250 g/ha [9]: 0%; pest or weed control at 15.625 g/ha [10]: 0%; pest or weed control at 62.5 g/ha [10]: 0%; pest or weed control at 250 g/ha [10]: 0%; pest or weed control at 15.625 g/ha [11]: 0%; pest or weed control at 62.5 g/ha [11]: 0%; pest or weed control at 250 g/ha [11]: 0%; pest or weed control at 15.625 g/ha [12]: 0%; pest or weed control at 62.5 g/ha [12]: 0%; pest or weed control at 250 g/ha [12]: 0%
